Where two headings read alike, the source gives them in different places.
Columns and labels:
Format in all cases: biochemical
[1] = biological target: human MAT I catalytic subunit alpha (hMAT1A) (Homo sapiens, UniProt Q00266); assay: MAT assay, turnover of S/Se-Met analogs to S(Se)AM analogs (RP-HPLC end point); details: 2 mM Met analog, 1 mM ATP, 5 μM MAT, pH 8, 4 h, 37° C.; average of two assays
[2] = biological target: human MAT II catalytic alpha and regulatory beta subunit (hMAT2) (Homo sapiens, UniProt P31153); assay: as above; details: 2 mM Met analog, 1 mM ATP, 5 μM MAT, pH 8, 4 h, 37° C.; average of two assays
[3] = biological target: human MAT II catalytic alpha subunit alone (hMAT2A) (Homo sapiens, UniProt P31153); assay: as above; details: 2 mM Met analog, 1 mM ATP, 5 μM MAT, pH 8, 4 h, 37° C., average of two assays
[4] = biological target: T1, Methanocaldococcus jannaschii MAT (mMAT) (Methanocaldococcus jannaschii, UniProt Q58605); details: 2 mM Met analog, 1 mM ATP, 5 μM MAT, pH 8, 4 h, 65° C.; average of two assays
T1 sequence (Q58605 1-406): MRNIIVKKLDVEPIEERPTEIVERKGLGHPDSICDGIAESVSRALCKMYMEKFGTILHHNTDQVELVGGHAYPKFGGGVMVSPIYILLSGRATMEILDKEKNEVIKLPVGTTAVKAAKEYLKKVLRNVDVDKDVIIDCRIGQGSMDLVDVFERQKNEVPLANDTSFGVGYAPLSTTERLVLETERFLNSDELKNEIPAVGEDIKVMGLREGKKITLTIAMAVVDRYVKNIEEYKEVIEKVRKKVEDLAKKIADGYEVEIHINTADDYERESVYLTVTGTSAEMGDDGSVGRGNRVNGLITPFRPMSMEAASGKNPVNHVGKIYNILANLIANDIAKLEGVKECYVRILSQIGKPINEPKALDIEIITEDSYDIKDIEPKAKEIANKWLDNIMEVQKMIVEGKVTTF

[5] = biological target: T2, Sulfolobus solfataricus MAT (sMAT) (Saccharolobus solfataricus, UniProt Q980S9); details: 2 mM analog, 1 mM ATP, 5 μM sMAT, pH 8.0, 4 h at 65° C., average of two assays
T2 sequence (Q980S9 1-404): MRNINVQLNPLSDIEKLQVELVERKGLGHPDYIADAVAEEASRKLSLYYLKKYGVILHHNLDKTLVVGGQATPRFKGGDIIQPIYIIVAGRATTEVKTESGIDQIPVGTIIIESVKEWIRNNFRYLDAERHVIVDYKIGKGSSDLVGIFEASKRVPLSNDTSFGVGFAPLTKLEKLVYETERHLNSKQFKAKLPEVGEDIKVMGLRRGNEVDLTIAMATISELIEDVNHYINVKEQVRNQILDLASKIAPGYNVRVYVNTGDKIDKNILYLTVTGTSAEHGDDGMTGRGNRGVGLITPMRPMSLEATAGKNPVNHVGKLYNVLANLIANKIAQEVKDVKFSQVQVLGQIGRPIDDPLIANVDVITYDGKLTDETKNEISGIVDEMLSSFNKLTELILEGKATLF

SMILES: CCSCC[C@H](N)C(=O)O [compound 3, (2S)-2-amino-4-(ethylsulfanyl)butanoic acid]
- Percentage Turn-over hMAT1A [1]: 75%
- Percentage Turn-over hMAT2 [2]: 88%
- Percentage Turn-over hMAT2A [3]: 90%
- Percentage Turn-over hMAT2A ([3]; listed as ethionine): ~100%
- Percentage Turn-over mMAT [4]: 94%
- Percentage Turn-Over (sMAT) [5]: 84%
- Percentage Turn-Over (sMAT) ([5]; listed as ethionine): ~100%
